According to the supplement of paper PMC10307832:

How the values were obtained:
Assay in all cases: relative viability (nuclei count vs DMSO), 5 days (fraction); higher = more cells survive
[1] = compound: C1/C(=C\C2=CC=CS2)/C(=O)/C(=C/C3=CC=CS3)/C1 + CC(=O)c1c(C)c2cnc(Nc3ccc(N4CCNCC4)cn3)nc2n(C2CCCC2)c1=O [Palbociclib] (partner 0.5 µM)
In short: (§1)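 Cells from lung cancer lines were seeded into 1536-well plates and, one day later, dosed by pin tool. Treatments were either a single drug or a fixed dose of an anchor drug with five library-drug doses (not always all listed) in √10 steps. After 5 days, nuclei were stained in a one-step fixation (final 0.05% Triton X-100, 1% formaldehyde, 1 ug/ml Hoechst) and counted on 4× images, and relative viability is the treated-to-vehicle nuclei ratio, as the median of duplicate plates.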

[2] = compound: C1=CC(=CC=C1C2=CC(=C(S2)NC(=O)N)C(=O)N)F [TPCA-1] + N=C(N)NC(=N)NCCc1ccccc1 [Phenformin] (partner 250 µM)
In short: as §1

[3] = compound: C1=CC(=CC=C1C2=CC(=C(S2)NC(=O)N)C(=O)N)F [TPCA-1] + O=C(c1cc(Cc2n[nH]c(=O)c3ccccc23)ccc1F)N1CCN(C(=O)C2CC2)CC1 [Olaparib] (partner 8 µM)
In short: as §1

[4] = compound: C[C@]12O[C@H](C[C@]1(O)CO)n1c3ccccc3c3c4c(c5c6ccccc6n2c5c31)CNC4=O [Lestaurtinib] + N=C(N)NC(=N)NCCc1ccccc1 [Phenformin] (partner 250 µM)
In short: as §1

Cell Line	relative viability ([1]; first compound 0.2 µM)	relative viability ([1]; first compound 0.6325 µM)	relative viability ([1]; first compound 2 µM)	relative viability ([1]; first compound 6.325 µM)	relative viability ([1]; first compound 20 µM)	relative viability ([2]; first compound 0.04 µM)	relative viability ([2]; first compound 0.1265 µM)	relative viability ([2]; first compound 0.4 µM)	relative viability ([2]; first compound 1.265 µM)	relative viability ([2]; first compound 4 µM)	relative viability ([3]; first compound 0.04 µM)	relative viability ([3]; first compound 0.1265 µM)	relative viability ([3]; first compound 0.4 µM)	relative viability ([3]; first compound 1.265 µM)	relative viability ([3]; first compound 4 µM)	relative viability ([4]; first compound 0.005 µM)	relative viability ([4]; first compound 0.01581 µM)	relative viability ([4]; first compound 0.05 µM)	relative viability ([4]; first compound 0.1581 µM)	relative viability ([4]; first compound 0.5 µM)
HCC-827	0.487	0.481	0.522	0.463	0.525	0.384	0.385	0.404	0.367	0.353	0.678	0.62	0.772	0.609	0.367	0.359	0.44	0.36	0.316	0.265
EMC-BAC-2	0.548	0.549	0.526	0.472	0.518	0.604	0.476	0.571	0.4	0.247	0.486	0.461	0.572	0.355	0.245	0.476	0.567	0.424	0.364	0.26
NCI-H520	0.256	0.251	0.223		0.227	0.872	0.473	0.844	0.579	0.177	0.409	0.353	0.391	0.373	0.344	0.648	0.744	0.44	0.313	0.2
NCI-H1755	0.432	0.454	0.458	0.333	0.409	0.665	0.553	0.6	0.503	0.427	0.778	0.912	0.877	0.853	0.672	0.663	0.648	0.462	0.336	0.287
